# Measured values taken from article PMC7946403, “Targeted LC-MS/MS platform for the comprehensive determination of peptides in the kallikrein-kinin system” (Analytical and Bioanalytical Chemistry, 2021).
# Counter-ions that a name gives are not always drawn.
# Tested on: artificial generation of bradykinin
# Test: Evaluation of inhibitors preventing the artificial formation of bradykinin for generation of blank plasma
# Design: species or system human
# Settings: plasma from prespiked S-Monovettes stored at 21 °C, analysed after 30 min, 1.5 h and 4.5 h, n = 3
# Method: Due to the endogenous presence of kinins in human plasma, it was aimed to develop a surrogate matrix mimicking human biological samples at best. Therefore, distinct serine protease inhibitors were evaluated for their ability to prevent the artificial generation of bradykinin after blood sampling. […] Therefore, plasma was drawn into prespiked S-Monovettes® and aliquots of the plasma stored at 21 °C were analysed after 30 min, 1.5 h and 4.5 h. The following inhibitors were investigated and compared to plasma without inhibitor (each n = 3): 4-(2-aminoethyl)benzolsulfonylfluoride (AEBSF), hexadimethrine bromide, aprotinin, nafamostat mesylate and leupeptin. Additionally, the final blank generation protocol was evaluated for six human sources, whose generated blanks were analysed in triplicate to ensure the depletion of endogenous peptides across multiple sources.
row,Compound,Prevention of artificial generation of bradykinin (in words)
1,aprotinin,did not sufficiently prevent the artificial generation of bradykinin
2,"NCCc1ccc(S(=O)(=O)F)cc1 [AEBSF, 4-(2-aminoethyl)benzolsulfonylfluoride]",did not sufficiently prevent the artificial generation of bradykinin
3,"N=C(N)c1ccc2cc(OC(=O)c3ccc(N=C(N)N)cc3)ccc2c1 [nafamostat, nafamostat mesylate]",only decreased the formation of bradykinin at the 0.5 h and 1.5 h timepoints
4,CC(=O)N[C@@H](CC(C)C)C(=O)N[C@@H](CC(C)C)C(=O)N[C@H](C=O)CCCNC(=N)N [leupeptin],only decreased the formation of bradykinin at the 0.5 h and 1.5 h timepoints
5,hexadimethrine bromide,lowest levels of bradykinin were detected

# Tested on: not given
# Test: not given
# Assay type: in vitro ADME, human
# Settings: not given
# Method: In this study, human blank plasma was generated by sampling blood into trisodium citrate S-Monovettes® spiked with hexadimethrine bromide and nafamostat mesylate to prevent the artificial generation of bradykinin. After centrifugation at 2000×g for 10 min at room temperature, the plasma was left at room temperature for 4 h to enable degradation of short-lived kinins. The blank plasma generated was stored at −20 °C until use.
# Before preparation of quality control (QC) or calibration curve samples, a protease inhibitor was added to blank plasma samples, following a protocol derived from Nussberger et al.. Solid-phase extraction (SPE) was performed using 96-well Oasis weak cation exchange (WCX) μ-elution plates (Waters, Milford, MA, USA). The wells were conditioned with 200 μL methanol, followed by 200 μL water. […]
# Finally, stability was examined using three replicates of four QC levels (high [750.0 pg/mL], mid [125.0 pg/mL] and low [31.1 pg/mL and 7.8 pg/mL]). […] Freeze-thaw stability was determined after one, two and four cycles of complete thawing and refreezing of samples at −80 °C. Furthermore, long-term stability of the plasma samples was analysed after 1, 2 and 4 weeks. For all stability investigations, the maximum deviation of the calculated concentration to the nominal concentration compared to a freshly prepared calibration curve was ≤15% (RE).
row,Compound,Freeze-thaw stability (in words)
1,"bradykinin 1-7 (RPPGFSP; Bradykinin; UniProt P01042 381-387, looked up, fragment)",trended towards a decrease
2,"bradykinin 1-5 (RPPGF; Bradykinin; UniProt P01042 381-385, looked up, fragment)",trended towards a decrease
